# Test results: patent US7964567B2, “Monomethylvaline compounds capable of conjugation to ligands” (Seattle Genetics, Inc., priority 2003, dated 2011)
# Square brackets hold non-standard residues; d marks the D form. Peptide text beside a SMILES is read from it. * marks the point of attachment. Dolaproine = CO[C@@H]([C@@H]1CCCN1)[C@@H](C)C(=O)O; Dil = CC[C@H](C)[C@H](NC)[C@@H](CC(=O)O)OC; X1 = C[C@@H](N*)[C@@H](O)c1ccccc1; NMeV = CN[C@H](C(=O)O)C(C)C
# Tests used:
# SK-BR-3 cells = test: In vitro cell proliferation assay (CellTiter-Glo), SK-BR-3 cells; assay type: cell-based, human; details: ADC incubated 3-5 days
# Protocol: Cell-based in vitro assays were used to measure viability (proliferation), cytotoxicity, and induction of apoptosis (caspase activation) of the ADC of the invention.
# The homogeneous assay procedure involves adding the single reagent (CellTiter-Glo® Reagent) directly to cells cultured in serum-supplemented medium. Cell washing, removal of medium and multiple pipetting steps are not required. The system detects as few as 15 cells/well in a 384-well format in 10 minutes after adding reagent and mixing. The cells may be treated continuously with ADC, or they may be treated and separated from ADC.
# The homogeneous “add-mix-measure” format results in cell lysis and generation of a luminescent signal proportional to the amount of ATP present. The amount of ATP is directly proportional to the number of cells present in culture. […] Viable cells are reflected in relative luminescence units (RLU). […] Data can be recorded by luminometer or CCD camera imaging device. The luminescence output is presented as relative light units (RLU), measured over time.
# Control wells were prepared containing medium and without cells. • 3. […] The plate was incubated at room temperature for 10 minutes to stabilize the luminescence signal. • 8. Luminescence was recorded and reported in graphs as RLU=relative luminescence units.
# [1] = tested on: CD30+ cell line Karpas 299; test: Cytotoxicity determination (resazurin, General Procedure I), Karpas 299; assay type: cell-based, human; details: Karpas 299, 96 hours; for IC50: resazurin
# Protocol: General Procedure I—Cytotoxicity determination. To evaluate the cytotoxicity of Exemplary Conjugates 7-10, cells were seeded at approximately 5-10,000 per well in 150 μl of culture medium then treated with graded doses of Exemplary Conjugates 7-10 in quadruplicates at the initiation of assay. Cytotoxicity assays were carried out for 96 hours after addition of test compounds. Fifty μl of the resazurin dye was added to each well during the last 4 to 6 hours of the incubation to assess viable cells at the end of culture. Dye reduction was determined by fluorescence spectrometry using the excitation and emission wavelengths of 535 nm and 590 nm, respectively. For analysis, the extent of resazurin reduction by the treated cells was compared to that of the untreated control cells.
# [2] = Plasma clearance pharmacokinetics in rats; assay type: in vivo, Sprague-Dawley rats; details: rat, free drug
# Protocol: Pharmacokinetic plasma clearance and stability of ADC were investigated in rats and cynomolgus monkeys. Plasma concentration was measured over time. […] Rats are a non-specific model for ErbB receptor antibodies, since the rat is not known to express HER2 receptor proteins.
# AUC inf is the area under the plasma concentration-time curve from time of dosing to infinity and is a measure of the total exposure to the measured entity (drug, ADC). CL is defined as the volume of plasma cleared of the measured entity in unit time and is expressed by normalizing to body weight. T1/2 term is the half-life of the drug in the body measured during its elimination phase.
# Animals were dosed by bolus tail vein injection (IV Push). […] Total antibody was measured by ELISA—ECD/GxhuFc-HRP. Antibody drug conjugate was measured by ELISA—MMAE/MMAF/ECD-Bio/SA-HRP.
molecule,measurement,setting,value
H-MC-vc-PAB-MMAE: trastuzumab conjugated via a cysteine to MC-val-cit-PAB-MMAE; preparations of different loading,IC50 (μg ADC/ml),SK-BR-3 cells,0.015 μg ADC/ml
cAC10-9: cAC10 Conjugate of Compound 9,activity compared with cAC10-val-cit-MMAE,[1],slightly more active
same,IC50,[1],0.5 ng/mL
"CC[C@H](C)[C@@H]([C@@H](CC(=O)N1CCC[C@H]1[C@H](OC)[C@@H](C)C(=O)N[C@@H](Cc1ccccc1)C(=O)O)OC)N(C)C(=O)[C@@H](NC(=O)[C@@H](NC)C(C)C)C(C)C [Compound 2, N-methylvaline-valine-dolaisoleuine-dolaproine-phenylalanine] (H-[NMeV]V[Dil][Dolaproine]F-OH)",Cmax,"[2]; Sprague-Dawley, plasma, intravenous, 200 ug/kg",280 ng/mL
same,half-life,"[2]; Sprague-Dawley, plasma, intravenous, 200 ug/kg, 200 μg/kg, read-out: T½ Term. (converted)",5.38 h
same,AUCinf,[2]; 200 μg/kg,0.99 µg·days/mL
same,CL,[2]; 200 μg/kg,8.5 mL/h/kg
"CC[C@H](C)[C@@H]([C@@H](CC(=O)N1CCC[C@H]1[C@H](OC)[C@@H](C)C(=O)N[C@H](C)[C@@H](O)c1ccccc1)OC)N(C)C(=O)[C@@H](NC(=O)[C@@H](NC)C(C)C)C(C)C [MMAE, mono-methyl auristatin E, reference compound] (H-[NMeV]V[Dil][Dolaproine]-X1)",AUCinf,[2]; 206 μg/kg,3.71 µg·days/mL
same,CL,[2]; 206 μg/kg,2.61 mL/h/kg
same,T½ Term.,[2]; 206 μg/kg,17.8 h
cAC10-val-cit-MMAE: cAC10 (anti-CD30) val-cit MMAE conjugate used as comparator [reference compound],IC50,[1],6 ng/mL
